What is called pIC50 is −log10 of the IC50, conventionally taken in molar units.

pIC50: −log10 of the molar value. “And” between values parts separate entries of the source, which are not always exact repeats. Equal entries are not always repeated.

For one test, the system named is ATF4 translation (ATF4 pathway), SH-SY5Y-ATF4-NanoLuc cells. The test is described as follows: ATF4 cell based assay (ATF4 5'-UTR NanoLuc luciferase reporter, Thapsigargin induced cellular stress). The note with it: SH-SY5Y-ATF4-NanoLuc cells challenged with Thapsigargin for 14-18 hours; average of two or more experimental runs; read-out: average ATF4 pathway inhibitory activity (IC50). The text has this: The ATF4 reporter assay measures the effect of Thapsigargin induced cellular stress on ATF4 expression. For this reporter assay, a stable cell line was created by transfecting SH-SY5Y cells with a plasmid containing the NanoLuc® luciferase gene fused to the 5′-UTR of ATF4, under the control of the CMV promoter. The ATF4 5′-UTR contains two open reading frames which mediate the cellular stress-dependent translation of the reporter gene. Clones stably expressing the reporter construct were isolated and selected based on the luminescence response to thapsigargin and inhibition of this signal by test compounds. Briefly, SH-SY5Y-ATF4-NanoLuc cells were challenged with Thapsigargin for 14-18 hours to determine the stress effect with or without test compounds.
Cells were propagated in growth media consisting of 90% DMEM F12 (InVitrogen #11320-033), 10% Fetal Bovine Serum (Gibco #10438-026), 5 mM Glutamax (Gibco #35050-061), 5 mM Hepes, (Gibco #15630-080), and 0.5 mg/ml Geneticin (Gibco #10131-027). Cells were prepared for the assay by removing all media from cells, washing the plated cells with phosphate buffered saline, and detached by adding a solution comprised of 10% Tryple express solution (InVitrogen12604-021) and 90% enzyme-free cell dissociation buffer HANKS base (Gibco 13150-016). The trypsin was deactivated by adding assay media comprised of 90% phenol-red free DMEM F12 (InVitrogen, 11039), 10% Fetal Bovine Serum (Gibco #10438-026), (5 mM Glutamax (Gibco #35050-061), 5 mM Hepes, (Gibco #15630-080), and 0.5 mg/ml Geneticin (Gibco #10131-027). Suspended cells were spun down at 300 g for 5 min, the supernatant was removed and the cell pellet was suspended in warm media (30-37° C.) comprised as above at (1e6 cell/ml).
Assay plates were prepared by adding 250 nL of compound stock solution in 100% DMSO to each well, followed by dispensing 20 microliters/well cell suspension to deliver 15-20 k cell/well. Cells were incubated for 1 hour at 37° C. Then, 5 μL of 1.5 μM or 1 μM of Thapsigargin (final concentration: 200-300 nM) was added to each well of cells. Assay plates containing cells were incubated for 14-18 hours at 37° C.
The measurement of luciferase produced by the ATF4 constructs was measured as follows. Aliquots of the Nano-Glo reagent (Nano-Glo® Luciferase Assay Substrate, Promega, N113, Nano-Glo® Luciferase Assay Buffer, Promega, N112 (parts of Nano-Glo® Luciferase Assay System, N1150) were brought to room temperature, the substrate and buffer were mixed according to manufacturer's instructions. The cell plates were equilibrated to room temperature. 25 microliters/well of the mixed Nano-Glo reagent were dispensed into assay wells and pulse spun to settle contents and the plate was sealed with film. The plates were incubated at room temperature for 1 hour before detecting luminescence on an Envision plate reader.
Compounds of the invention are tested for activity against ATF4 translation in the above assay.
(In general: Reporter assays use an easily measured gene product as a stand-in for the process of interest.)
In the case of `O=C(COc1ccc(Cl)cc1)NCC1CC(=O)N(CCCOc2ccc(Cl)cc2)C1` (stereo not drawn) [Example 81, 2-(4-chlorophenoxy)-N-((1-(3-(4-chlorophenoxy)propyl)-5-oxopyrrolidin-3-yl)methyl)acetamide], the negative logarithm of the IC50 (pIC50) was 6.00 to 7.00.

As for `O=C(COc1ccc(Cl)cc1)NC[C@H]1CCN(C(=O)COc2ccc(Cl)cc2)C1` [Example 30], the pIC50 is 6.60.

For the molecule `O=C(COc1ccc(Cl)cc1)NC1CCN(C(=O)COc2ccc(Cl)cc2)C1` (stereo not drawn) [Example 7, 2-(4-chlorophenoxy)-N-(1-(2-(4-chlorophenoxy)acetyl)pyrrolidin-3-yl)acetamide], the pIC50 was 5.00 to 6.00.

In the case of `O=C(COc1ccc(Cl)cc1)NCC1CCN(C(=O)CCCc2ccc(Cl)cc2)C1` (stereo not drawn) [Example 38, 2-(4-chlorophenoxy)-N-((1-(4-(4-chlorophenyl)butanoyl)pyrrolidin-3-yl)methyl)acetamide], the pIC50 was more than 7.00.

`O=C(COc1ccc(Cl)cc1)NCC1CCN(C(=O)CCOc2ccc(Cl)cc2)C1` (stereo not drawn) [Example 14, 2-(4-chlorophenoxy)-N-((1-(3-(4-chlorophenoxy)propanoyl)pyrrolidin-3-yl)methyl)acetamide]: the pIC50 is more than 7.00.

Consider `O=C(COc1ccc(Cl)cc1)NCC1CCN(C(=O)C2CCc3cc(Cl)ccc3O2)C1` (stereo not drawn) [Example 8, N-((1-(6-chlorochroman-2-carbonyl)pyrrolidin-3-yl)methyl)-2-(4-chlorophenoxy)acetamide], for which the pIC50 is more than 7.00.

In the case of `O=C(COc1ccc(Cl)cc1)NC1C[C@@H]2CN(C(=O)COc3ccc(Cl)cc3)CC12` (stereo in doubt) [Example 32, 2-(4-chlorophenoxy)-N-((1S,5R)-3-(2-(4-chlorophenoxy)acetyl)-3-azabicyclo[3.2.0]heptan-6-yl)acetamide], the pIC50 is more than 7.00.

Regarding `O=C(COc1ccc(Cl)nc1)N[C@H]1[C@@H]2CN(CCCOc3ccc(Cl)cc3)C[C@@H]21` [Example 51, N-((1R,5S,6s)-3-(3-(4-chlorophenoxy)propyl)-3-azabicyclo[3.1.0]hexan-6-yl)-2-((6-chloropyridin-3-yl)oxy)acetamide], the pIC50 was more than 7.00.

As for `O=C(COc1ccc(F)cc1Cl)NCC1CCN(CCCOc2ccc(Cl)cc2)C1` (stereo not drawn) [Example 46, 2-(2-chloro-4-fluorophenoxy)-N-((1-(3-(4-chlorophenoxy)propyl)pyrrolidin-3-yl)methyl)acetamide], the pIC50 is 6.00 to 7.00.

Turning to `O=C(COc1ccc(Cl)cc1)NCC1CCN(CCCOc2ccc(Cl)cc2)C1=O` (stereo not drawn) [Example 75, 2-(4-chlorophenoxy)-N-((1-(3-(4-chlorophenoxy)propyl)-2-oxopyrrolidin-3-yl)methyl)acetamide], the pIC50 was 6.00 to 7.00.

With `O=C(COc1ccc(Cl)cc1)NCC1CCN(CCCOc2ccc(Cl)cc2F)C1` (stereo not drawn) [Example 62, N-((1-(3-(4-chloro-2-fluorophenoxy)propyl)pyrrolidin-3-yl)methyl)-2-(4-chlorophenoxy)acetamide], the pIC50 was more than 7.00.

`O=C(COc1ccc(Cl)cc1)NCC1CCN(C(=O)C2Cc3cc(Cl)ccc3O2)C1` (stereo not drawn) [Example 9, N-((1-(5-chloro-2,3-dihydrobenzofuran-2-carbonyl)pyrrolidin-3-yl)methyl)-2-(4-chlorophenoxy)acetamide]: the pIC50 was 6.00 to 7.00.

`O=C(COc1ccc(Cl)cc1)N1CCC2(CCN(C(=O)COc3ccc(Cl)cc3)C2)C1` [Example 26, 1,1′-(2,7-diazaspiro[4.4]nonane-2,7-diyl)bis(2-(4-chlorophenoxy)ethanone)]: the pIC50 was 5.00 to 6.00.

`O=C(COc1ccc(Cl)cc1)NCC1CC(=O)N(CCOc2ccc(Cl)cc2)C1` (stereo not drawn) [Example 3, 2-(4-chlorophenoxy)-N-((1-(2-(4-chlorophenoxy)ethyl)-5-oxopyrrolidin-3-yl)methyl)acetamide]: the pIC50 is more than 7.00.

For the molecule `O=C(COc1ccc(Cl)cc1)NC[C@H]1CCN(CCCOc2ccc(Cl)cc2)C1` [Example 73, (R)-2-(4-chlorophenoxy)-N-((1-(3-(4-chlorophenoxy)propyl)pyrrolidin-3-yl)methyl)acetamide], the pIC50 is more than 7.00.

Regarding `O=C(COc1ccc(Cl)cc1)NCC1CCN(C(=O)COc2ccc(Cl)nc2)C1` (racemic) [Example 20, 2-(4-chlorophenoxy)-N-((1-(2-((6-chloropyridin-3-yl)oxy)acetyl)pyrrolidin-3-yl)methyl)acetamide], the pIC50 was 5.00 to 6.00.

Turning to `O=C(COc1ccc(Cl)cc1)NCC1CCN(CC(O)COc2ccc(Cl)cc2)C1` (stereo not drawn) [Example 77, 2-(4-chlorophenoxy)-N-((1-(3-(4-chlorophenoxy)-2-hydroxypropyl)pyrrolidin-3-yl)methyl)acetamide], the pIC50 was > 7.00 and 7.19.

For `O=C(NCC1CCN(C(=O)COc2ccc(Cl)cc2)C1)C1CCc2cc(Cl)ccc2O1` (stereo not drawn) [Example 22, 6-chloro-N-((1-(2-(4-chlorophenoxy)acetyl)pyrrolidin-3-yl)methyl)chroman-2-carboxamide], the pIC50 was more than 7.00.

`CC1C[C@H](CNC(=O)COc2ccc(Cl)cc2)CN1CCCOc1ccc(Cl)cc1` (stereo partly drawn) [Example 58, 2-(4-chlorophenoxy)-N-(((3R)-1-(3-(4-chlorophenoxy)propyl)-5-methylpyrrolidin-3-yl)methyl)acetamide]: the pIC50 was 6.00 to 7.00.

In the case of `O=C(COc1ccc(Cl)cc1)N1CCC(CNCCOc2ccc(Cl)cc2)C1` (stereo not drawn) [Example 21, 2-(4-chlorophenoxy)-1-(3-(((2-(4-chlorophenoxy)ethyl)amino)methyl)pyrrolidin-1-yl)ethanone], the pIC50 was 6.00 to 7.00.

Regarding `O=C(COc1ccc(Cl)c(C(F)(F)F)c1)NCC1CCN(CCCOc2ccc(Cl)cc2)C1` (stereo not drawn) [Example 72, 2-(4-chloro-3-(trifluoromethyl)phenoxy)-N-((1-(3-(4-chlorophenoxy)propyl)pyrrolidin-3-yl)methyl)acetamide], the negative logarithm of the IC50 (pIC50) is more than 7.00.

As for `O=C(COc1ccc(Cl)cc1)NCC1(F)CCN(CCOc2ccc(Cl)cc2)C1` (stereo not drawn) [Example 42, 2-(4-chlorophenoxy)-N-((1-(2-(4-chlorophenoxy)ethyl)-3-fluoropyrrolidin-3-yl)methyl)acetamide], the pIC50 was 6.00 to 7.00.

As to `O=C(COc1ccc(Cl)cc1)NCC1CCN(CCCOc2ccc(Cl)c(Cl)c2)C1` (stereo not drawn) [Example 61, 2-(4-chlorophenoxy)-N-((1-(3-(3,4-dichlorophenoxy)propyl)pyrrolidin-3-yl)methyl)acetamide], the pIC50 was more than 7.00.

With `CC1CC(CNC(=O)COc2ccc(Cl)cc2)CN1C(=O)COc1ccc(Cl)cc1` (stereo not drawn) [Example 39, 2-(4-chlorophenoxy)-N-((1-(2-(4-chlorophenoxy)acetyl)-5-methylpyrrolidin-3-yl)methyl)acetamide], the pIC50 was 6.00 to 7.00.

On to `O=C(COc1ccc(C(F)(F)F)cc1)NCC1CCN(CCCOc2ccc(Cl)cc2)C1` (stereo not drawn) [Example 45, N-((1-(3-(4-chlorophenoxy)propyl)pyrrolidin-3-yl)methyl)-2-(4-(trifluoromethyl)phenoxy)acetamide], for which the pIC50 was more than 7.00.

For `O=C(COc1ccc(Cl)cc1)NOC1CCN(C(=O)C2CC2c2ccc(Cl)cc2)C1` (stereo not drawn) [Example 34, 2-(4-chlorophenoxy)-N-((1-(2-(4-chlorophenyl)cyclopropane-1-carbonyl)pyrrolidin-3-yl)oxy)acetamide], the pIC50 was 6.00 to 7.00.

Turning to `O=C(COc1ccc(Cl)cc1)N[C@H]1[C@@H]2CN(C(=O)COc3ccc(Cl)cc3)C[C@@H]21` [Example 31, 2-(4-chlorophenoxy)-N-((1R,5S,6s)-3-(2-(4-chlorophenoxy)acetyl)-3-azabicyclo[3.1.0]hexan-6-yl)acetamide], the pIC50 is 6.00 to 7.00.

For the molecule `O=C(COc1ccc(Cl)cc1)NCC1CCN(CCCOc2ccc(F)cc2)C1` (stereo not drawn) [Example 49, 2-(4-chlorophenoxy)-N-((1-(3-(4-fluorophenoxy)propyl)pyrrolidin-3-yl)methyl)acetamide], the negative-log IC50 (pIC50) is 6.00 to 7.00.

As for `O=C(COc1ccc(Cl)cc1)NCC1(F)CCN(CCCOc2ccc(Cl)cc2)C1` (stereo not drawn) [Example 60, 2-(4-chlorophenoxy)-N-((1-(3-(4-chlorophenoxy)propyl)-3-fluoropyrrolidin-3-yl)methyl)acetamide], the pIC50 is 6.00 to 7.00.

The same test, now with this note: read-out: average ATF4 pathway inhibitory activity (IC50).
In the case of `O=C(COc1ccc(Cl)cc1)NC[C@H]1CCN(C(=O)COc2ccc(Cl)cc2)C1` [Example 30], the pIC50 was 6.00 to 7.00.

Source of the values: patent US10851053B2, “Chemical compounds” (GlaxoSmithKline Intellectual Property Development Limited, priority 2016, dated 2020).
